The test system of the test is human IgG (polyclonal antirhamnose antibodies). Description: BLI monitoring of covalent reaction with human IgG (Figure 4B). Particulars: 10 μM cARM, 230 μM human IgG, up to 25 h. It counts as binding. The source says: The design of rhamnose-SO2F-cARM was again supported by in-silico docking and predicted to preorganize electrophilic SO2F proximal to lysine 104 and serine 53 of the anti-23F heavy chain as well as tyrosine 32 of the light chain (Figure S3). To evaluate the capacity of rhamnose-SO2F-cARMs to specifically label polyclonal antirhamnose antibodies, a tool cARM with a biotin TBD was synthesized (compound 12, Figure 4A, Scheme S5). As an orthogonal kinetics assay to fluorescent gels, tool compound 12 labeling kinetics was first evaluated using an in-house BLI assay and compared to acyl imidazole cARM and ARM analogs. […] Solutions were immediately loaded onto streptavidin probes (Figure 4B, Figure S8). In this assay, rhamnose competition blocks noncovalent antirhamnose recruitment, thus the signal amplitude is directly proportional to the covalently labeled antibody product.
Figure 4 Selectivity and kinetic analysis of optimized Rha-SO2F-cARMs A. Chemical structures of tool compounds used in this study. B. cARM 12 (10 μM) was incubated with human IgG or BSA (230 μM) then diluted 8× with 100 mM competitor rhamnose spiked kinetics buffer and loaded onto streptavidin probes in BLI. The association plateau was plotted against time to yield the % labeled vs time covalent labeling curve C. Kinetic fluorescence SDS-PAGE assay similar to that in Figure 2D. […]

From article PMC10683482, “Offsetting Low-Affinity Carbohydrate Binding with Covalency to Engage Sugar-Specific Proteins for Tumor-Immune Proximity Induction” (ACS Central Science, 2023) come the findings set out here.

Regarding `C[C@@H]1O[C@@H](OCc2cn(CCc3cn(C(=O)OCCOCCOCCOCCOCCOCCOCCOCCNC(=O)CCCC[C@@H]4SC[C@@H]5NC(=O)N[C@@H]54)cn3)nn2)[C@H](O)[C@H](O)[C@H]1O` [compound 4], the “progress of labeling reaction” value is on record as “still in the linear phase of the reaction”.
